For data set [1], the system named is Mus musculus. Kind of data set: Anti-colitis activity in ICR mouse model assessed as decrease in DSS-induced body weight loss at 400 mg/kg, IG treated for 9 days consecutively. The conditions noted are these: time 9.0 day. In kind it is functional, organism-based.
The subject of data set [2] is Mus musculus. The experiment in a line: Anti-colitis activity in ICR mouse model of DSS-induced colitis assessed as decrease in DAI score at 400 mg/kg, IG treated for 9 days consecutively. The data set is classed as functional, organism-based. The conditions noted are these: time 9.0 day.
Data set [3] concerns Mus musculus. Kind of data set: Anti-colitis activity in ICR mouse model assessed as reversal of DSS-induced colon shortening administered intragastrically for 9 days consecutively. In kind it is functional, organism-based. To be noted: route ig, time 9.0 day.
The test system of data set [4] is Mus musculus. The experiment in a line: Anti-colitis activity in ICR mouse model assessed as reversal of DSS-induced splenomegaly at 400 mg/kg, IG treated for 9 days consecutively. In kind it is functional, organism-based. To be noted: time 9.0 day.
Data set [5] concerns Mus musculus. Kind of data set: Anti-colitis activity in ICR mouse model assessed as reversal of DSS-induced spleen weight at 400 mg/kg, IG treated for 9 days consecutively. The conditions noted are these: time 9.0 day. In kind it is functional, organism-based.
Data set [6] has as its system THP-1. The experiment in a line: Anti-inflammatory activity in LPS-treated human THP-1 cells assessed as decrease in phosphorylated I-kappaB-alpha level at 10 uM pretreated for 1 hr followed by LPS treatment for 6 hrs by Western blot analysis. The data set is classed as functional, cell-based. To be noted: time 7.0 hrs. On the technique in general: In western blotting, separated proteins are transferred to a membrane and probed.

Data set [7] relates to THP-1. The experiment in a line: cells. To be noted: Homo sapiens, THP-1, 24 h.
Data set [8] can be described thus: Tmax in ICR mouse at 15 mg/kg, IG measured for 12 hrs by LC-MS/MS analysis. To be noted: in vivo, po. In kind it is ADME, organism-based.
A short description of data set [9]: Half life in ICR mouse at 15 mg/kg, IG measured for 12 hrs by LC-MS/MS analysis. The data set is classed as ADME, organism-based. To be noted: in vivo, po, 15 mg/kg, 12 h.
Data set [10] can be described thus: Cmax in ICR mouse at 15 mg/kg, IG measured for 12 hrs by LC-MS/MS analysis. To be noted: in vivo, po. The data set is classed as ADME, organism-based.
The nature of data set [11]: AUC (0 to t) in ICR mouse at 15 mg/kg, IG measured for 12 hrs by LC-MS/MS analysis. The conditions noted are these: in vivo, po. The data set is classed as ADME, organism-based.
Data set [12] can be described thus: MRT (0 to t) in ICR mouse at 15 mg/kg, IG measured for 12 hrs by LC-MS/MS analysis. In kind it is ADME, organism-based. The conditions noted are these: in vivo, po.
Data set [13] in a line: Tmax in colon of ICR mouse at 15 mg/kg, IG measured for 12 hrs by LC-MS/MS analysis. The data set is classed as ADME, organism-based. The conditions noted are these: po.
Data set [14] in a line: Half life in colon of ICR mouse at 15 mg/kg, IG measured for 12 hrs by LC-MS/MS analysis. In kind it is ADME, organism-based. The conditions noted are these: po.
Data set [15] can be described thus: Cmax in colon of ICR mouse at 15 mg/kg, IG measured for 12 hrs by LC-MS/MS analysis. In kind it is ADME, organism-based. To be noted: po.
Data set [16] in a line: AUC (0 to t) in colon of ICR mouse at 15 mg/kg, IG measured for 12 hrs by LC-MS/MS analysis. The data set is classed as ADME, organism-based. The conditions noted are these: po.
A short description of data set [17]: MRT (0 to t) in colon of ICR mouse at 15 mg/kg, IG measured for 12 hrs by LC-MS/MS analysis. The conditions noted are these: po. The data set is classed as ADME, organism-based.
Data set [18] has as its system Mus musculus. The experiment in a line: Anti-colitis activity in DSS-induced colitis mouse model at 20 to 40 mg/kg. The conditions noted are these: dose 20-40 mg/kg. The data set is classed as functional, organism-based.
Data set [19] has as its target T1, Pyruvate carboxylase, mitochondrial (Homo sapiens, UniProt P11498).
T1 sequence (P11498 whole entry): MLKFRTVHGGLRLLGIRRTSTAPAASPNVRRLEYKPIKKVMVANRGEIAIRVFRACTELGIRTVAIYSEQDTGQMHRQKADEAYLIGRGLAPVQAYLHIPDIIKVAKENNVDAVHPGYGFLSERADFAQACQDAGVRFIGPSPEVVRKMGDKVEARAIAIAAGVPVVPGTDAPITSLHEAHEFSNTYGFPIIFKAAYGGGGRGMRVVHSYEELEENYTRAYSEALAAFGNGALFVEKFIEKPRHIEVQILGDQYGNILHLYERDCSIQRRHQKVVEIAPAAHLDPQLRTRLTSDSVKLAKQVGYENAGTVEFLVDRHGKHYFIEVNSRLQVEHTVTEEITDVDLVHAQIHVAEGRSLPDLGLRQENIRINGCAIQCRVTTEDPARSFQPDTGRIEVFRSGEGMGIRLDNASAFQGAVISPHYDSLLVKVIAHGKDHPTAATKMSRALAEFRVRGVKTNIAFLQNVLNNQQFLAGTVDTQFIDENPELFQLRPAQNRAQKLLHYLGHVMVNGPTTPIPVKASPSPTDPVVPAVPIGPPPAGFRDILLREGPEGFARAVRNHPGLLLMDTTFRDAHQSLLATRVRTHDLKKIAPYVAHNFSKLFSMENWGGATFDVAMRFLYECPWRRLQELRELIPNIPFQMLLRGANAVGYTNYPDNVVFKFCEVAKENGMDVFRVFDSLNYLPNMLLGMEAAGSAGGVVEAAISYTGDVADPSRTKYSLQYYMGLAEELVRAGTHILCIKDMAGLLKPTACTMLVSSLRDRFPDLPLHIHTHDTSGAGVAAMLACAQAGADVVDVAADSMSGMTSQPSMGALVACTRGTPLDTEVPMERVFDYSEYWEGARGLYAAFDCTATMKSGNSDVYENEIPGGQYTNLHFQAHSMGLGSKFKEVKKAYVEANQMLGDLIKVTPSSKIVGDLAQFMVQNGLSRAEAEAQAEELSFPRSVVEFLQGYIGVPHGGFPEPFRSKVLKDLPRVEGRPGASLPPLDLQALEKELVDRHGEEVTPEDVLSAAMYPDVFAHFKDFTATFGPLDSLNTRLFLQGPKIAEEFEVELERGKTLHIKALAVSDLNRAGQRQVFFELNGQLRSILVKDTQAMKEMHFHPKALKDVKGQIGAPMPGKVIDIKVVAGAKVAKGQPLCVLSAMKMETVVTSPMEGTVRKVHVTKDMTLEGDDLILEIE
The experiment in a line: Inhibition of pyruvate carboxylase (unknown origin) by NADH-malate dehydrogenase based spectrophotometry.

Molecules are shown by their SMILES. Calls of active or inactive are those of the source. No cut-off for these calls is given here.

In the case of `Nc1ccc(O)c(C(=O)O)c1`, the result in the data set on Mus musculus [1], in the data set on Mus musculus [2], in the data set with Mus musculus [4] and in the data set with Mus musculus [5] was Active. In addition, the Activity entry with Mus musculus [3] was “Dose-Dependent Effect”.

In general, IC50 refers to the concentration that gives 50% inhibition. Read a high IC50 as weaker potency. For `C=C(C)[C@@H]1CC[C@]2(C(=O)NCCCNC(=O)OC(C)(C)C)CC[C@]3(C)[C@H](CC[C@@H]4[C@@]5(C)CC[C@H](O[C@@H]6OC[C@H](O)[C@H](O)[C@H]6O[C@@H]6O[C@@H](C)[C@H](O)[C@@H](O)[C@H]6O)[C@@](C)(CO)[C@@H]5CC[C@]43C)[C@@H]12`, the result with THP-1 [6] was Active. Further, the IC50 in the data set on THP-1 [7] was at least 80 µM.

The Tmax is the time from dosing to the highest level. In general, Cmax refers to the highest concentration seen after dosing. The term MRT last denotes a mean duration of stay, worked out from the concentration-time curve. The half-life is the time in which the quantity being followed falls by half. The low end stands for rapid decline, the high end for slow decline. For orientation: AUC(0-t) means the area under the concentration-time curve up to a stated or last time point. In the case of `C=C(C)[C@@H]1CC[C@]2(C(=O)O[C@@H]3O[C@H](CO[C@@H]4O[C@H](CO)[C@@H](O[C@@H]5O[C@@H](C)[C@H](O)[C@@H](O)[C@H]5O)[C@H](O)[C@H]4O)[C@@H](O)[C@H](O)[C@H]3O)CC[C@]3(C)[C@H](CC[C@@H]4[C@@]5(C)CC[C@H](O[C@@H]6OC[C@H](O)[C@H](O)[C@H]6O[C@@H]6O[C@@H](C)[C@H](O)[C@@H](O)[C@H]6O)[C@@](C)(CO)[C@@H]5CC[C@]43C)[C@@H]12`, the Tmax in data set [8] was 27.6 min; in data set [13], 1.92 h. In data set [9], this molecule displayed a t1/2 of 4.74 h. For the same molecule, the Cmax in data set [10] is 0.58 ng/mL; in data set [15] it was 7.12 ng/mL. In data set [11], the AUCt is 2.46 ng·h/mL. In addition, the MRT last at 12 h in data set [12] came out at 5.13 h; in data set [17] it was 4.38 h. The molecule also had a half-life in data set [14] of 279 min. In data set [16], this molecule had an AUC(0-t) at 12 h of 30.2 ng·h/mL. This molecule returned an IC50 in the data set with THP-1 [7] of at least 80 µM.

`C=C(C)[C@@H]1CC[C@]2(C(=O)O)CC[C@]3(C)[C@H](CC[C@@H]4[C@@]5(C)CC[C@H](O[C@@H]6OC[C@H](O)[C@H](O)[C@H]6O[C@@H]6O[C@@H](C)[C@H](O)[C@@H](O)[C@H]6O)[C@@](C)(CO)[C@@H]5CC[C@]43C)[C@@H]12`: the result with Mus musculus [18] was inactive. The IC50 in [19] was above 10000 nM; with THP-1 [7], at least 80 µM.

As to `C=C(C)[C@@H]1CC[C@]2(C(=O)NCCCN3CCOCC3)CC[C@]3(C)[C@H](CC[C@@H]4[C@@]5(C)CC[C@H](O[C@@H]6OC[C@H](O)[C@H](O)[C@H]6O[C@@H]6O[C@@H](C)[C@H](O)[C@@H](O)[C@H]6O)[C@@](C)(CO)[C@@H]5CC[C@]43C)[C@@H]12`, the figures for the IC50 (in data set [19]; in the data set on THP-1 [7]) were above 1000 nM and at least 80 µM, respectively.

In the case of `C=C(C)[C@@H]1CC[C@]2(C(=O)OCOC(C)=O)CC[C@]3(C)[C@H](CC[C@@H]4[C@@]5(C)CC[C@H](O[C@@H]6OC[C@H](O)[C@H](O)[C@H]6O[C@@H]6O[C@@H](C)[C@H](O)[C@@H](O)[C@H]6O)[C@@](C)(CO)[C@@H]5CC[C@]43C)[C@@H]12`, the IC50 is above 1000 nM in data set [19] and at least 80 µM in the data set on THP-1 [7].

For the molecule `C=C(C)[C@@H]1CC[C@]2(C(=O)NCCCN3CCCC3)CC[C@]3(C)[C@H](CC[C@@H]4[C@@]5(C)CC[C@H](O[C@@H]6OC[C@H](O)[C@H](O)[C@H]6O[C@@H]6O[C@@H](C)[C@H](O)[C@@H](O)[C@H]6O)[C@@](C)(CO)[C@@H]5CC[C@]43C)[C@@H]12`, the IC50 in [19] is above 1000 nM; with THP-1 [7] it was at least 80 µM.

For `C=C(C)[C@@H]1CC[C@]2(C(=O)NCCCc3ccccc3)CC[C@]3(C)[C@H](CC[C@@H]4[C@@]5(C)CC[C@H](O[C@@H]6OC[C@H](O)[C@H](O)[C@H]6O[C@@H]6O[C@@H](C)[C@H](O)[C@@H](O)[C@H]6O)[C@@](C)(CO)[C@@H]5CC[C@]43C)[C@@H]12`, the IC50 was above 1000 nM in data set [19] and at least 80 µM with THP-1 [7].
